Source: article PMC3900635, “Transport Rankings of Non-Steroidal Antiinflammatory Drugs across Blood-Brain Barrier In Vitro Models” (PLoS ONE, 2014)
Like-named read-outs stand apart in the source and are kept apart here.

Tests used:
[1] = in vitro
Experimental: (§1) All solutions were prepared under sterile conditions.
(§2) For quantification of NSAIDs a reverse-phase high-performance liquid chromatography (RP-HPLC) system from Shimadzu was used (DGV-20A5/prominence Degasser, SIL – 20AC/prominence Auto Sampler, CTO – 20AC/prominence Column Oven, SPD – 20A/prominence UV detector, CMB – 20A/prominence Communications Bus Module). […] Before analysis proteins of samples were precipitated with ice-cold methanol or acetonitril depending on mobile phase composition and supernatants were analyzed. Data aquisition and analysis were performed by LC-Solution software (Shimadzu Handelsgesellschaft, Austria). Substances were analysed in triplicates with a injection volume of 20–50 µL.Varying mixtures of methanol, acetonitrile, and 10 mM potassium buffer (pH = 2.5 for all analysis except pH = 3.5 for single studies with celecoxib) were used as mobile phase.
(§3) Permeability coefficients were calculated following the clearance principle as described recently. Results of blank value experiments were included into permeability coefficient calculation by using reciprocal correlation shown in equation (1):
(§4) 1/PEcell = 1/PEall – 1/PEblank (1)
(§5) PEblank refers to the permeability coefficient without cell layer, PEall represents the permeability coefficient through membrane insert and the cell layer and PEcell is the permeability coefficient only through the cell layer.

[2] = system: primary rat brain microvascular endothelial cells (RBMEC); test: in vitro
Experimental: as §1, §2, §3, §4, §5

[3] = system: PBMEC/C1-2 cell layers; test: in vitro; settings: for PEcell: PBMEC/C1-2 group study
Experimental: as §1, §2, §3, §4, §5

[4] = system: ECV304 cell layers; test: in vitro
Experimental: as §1, §2, §3, §4, §5

[5] = Group transport studies across ECV304 layers (Transwell); settings: human, PEcell
Experimental: as §1, §2, §3, §4, §5

[6] = assay type: in vitro ADME, calf; settings: group composition, ultrafiltration
Experimental: […]. After incubation at 37°C for 40 minutes, 2 mL of the solutions were centrifuged across prewashed (2 mL PBS, 10 minutes, 2500 g) Centrisart ultra-filters (molecular cut-off 10 kDa, Sartorius) at 2500 g for 5 (PBS and 0% serum), 10 (7.5% serum) or 15 (50% and 100% serum) minutes to obtain at least one third to one half of the totally applied volume. […]. Carboxyfluorescein was measured by the microplate reader method as described above. Unbound substance concentrations in the filtrates were related to stock solutions to determine the serum binding (100%-unbound fraction [%]). Blank experiments (PBS, 0% serum experiments) were included in the calculation of serum binding values to consider systematic procedure errors and binding of the substances to the ultrafiltration membrane. Experiments under each condition were repeated for three times.

[7] = ECV304 group study, all substances (6 NSAIDs, diazepam, CF), C6 medium
[8] = ECV304 group study, without Meloxicam
[9] = with probenecid (concentration not stated), ECV304 group study, with Probenecid, without Meloxicam
[10] = with verapamil (concentration not stated), ECV304 group study, with Verapamil, without Meloxicam
[11] = pig, PEcell, PBMEC/C1-2 group study, all substances (6 NSAIDs, diazepam, CF), C6 medium
[12] = pig, PEcell, PBMEC/C1-2 group study, without Meloxicam
[13] = pig, with verapamil (concentration not stated), PEcell, PBMEC/C1-2 group study, with Verapamil, without Meloxicam

Molecule: O=C(O)Cc1ccccc1Nc1c(Cl)cccc1Cl [Diclofenac, diclofenac]
- Papp at 100 µM ([1]; human): 9.45 ×10⁻⁶ cm/s
- Papp at 100 µM ([1]; pig): 17.7 ×10⁻⁶ cm/s
- Papp at 100 µM ([1]; rat): 44.6 ×10⁻⁶ cm/s
- PSblank ([2]; 100 µM): 1.65 ± 0.13 µL/min
- PEall ([2]; rat, 100 µM): 10.84±0.51 µm/min
- PSall ([2]; rat, 100 µM): 0.96 ± 0.05 µL/min
- PScell ([2]; rat, 100 µM): 2.39 ± 0.27 µL/min
- PSblank ([3]; 100 µM): 5.83 ± 0.26 µL/min
- PEall ([3]; pig, 100 µM): 6.00±0.38 µm/min
- PSall ([3]; pig, 100 µM): 2.52 ± 0.16 µL/min
- PScell ([3]; pig, 100 µM): 4.44 ± 0.48 µL/min
- PSblank ([4]; 100 µM): 4.08 ± 0.41 µL/min
- PEall ([4]; human, 100 µM): 3.58±0.18 µm/min
- PSall ([4]; human, 100 µM): 1.50 ± 0.08 µL/min
- PScell ([4]; human, 100 µM): 2.38 ± 0.19 µL/min

Molecule: Cc1ccc(-c2cc(C(F)(F)F)nn2-c2ccc(S(N)(=O)=O)cc2)cc1 [Celecoxib, celecoxib]
- Papp at 100 µM [5, 7]: 11 ×10⁻⁶ cm/s
- Papp at 100 µM [5, 8]: 23.3 ×10⁻⁶ cm/s
- Papp at 100 µM [5, 9]: 15.5 ×10⁻⁶ cm/s
- Papp at 100 µM [5, 10]: 10.3 ×10⁻⁶ cm/s
- Papp at 100 µM ([1]; human): 7.62 ×10⁻⁶ cm/s
- Papp at 100 µM ([1]; pig): 22.4 ×10⁻⁶ cm/s
- Papp at 100 µM [1, 11]: 22.1 ×10⁻⁶ cm/s
- Papp at 100 µM [1, 12]: 25.8 ×10⁻⁶ cm/s
- Papp at 100 µM ([1]; pig, with probenecid (concentration not stated), PEcell, PBMEC/C1-2 group study, with Probenecid, without Meloxicam): 27.8 ×10⁻⁶ cm/s
- Papp at 100 µM [1, 13]: 35.1 ×10⁻⁶ cm/s
- PSblank ([3]; 100 µM): 6.07 ± 0.45 µL/min
- PEall ([3]; PBMEC/C1-2, Celecoxib study, insert and cell layer): 6.95±0.45 µm/min
- PSall ([3]; pig, 100 µM): 2.92 ± 0.19 µL/min
- PScell ([3]; pig, 100 µM): 5.62 ± 0.71 µL/min
- PSblank ([4]; 100 µM): 5.10 ± 0.06 µL/min
- PEall ([4]; ECV304, Celecoxib study, insert and cell layer): 3.31±0.41 µm/min
- PSall ([4]; human, 100 µM): 1.39 ± 0.17 µL/min
- PScell ([4]; human, 100 µM): 1.91 ± 0.32 µL/min

Molecule: CN1C(=O)CN=C(c2ccccc2)c2cc(Cl)ccc21 [Diazepam, diazepam]
- PEall ([3]; pig): 11.10±1.33 µm/min
- Serum binding ([6]; Serum concentration 50%): 19.52±0.13%
- Serum binding ([6]; Serum concentration 100%): 22.52±0.06%
- Serum binding ([6]; Serum concentration […] (C6 medium)): 8.17±0.49%

Molecule: CC(C)Cc1ccc(C(C)C(=O)O)cc1 (centres unmarked) [Ibuprofen, ibuprofen]
- Papp at 100 µM [5]: 16.3 ×10⁻⁶ cm/s
- Papp at 100 µM ([1]; pig): 28.2 ×10⁻⁶ cm/s
- Papp at 100 µM ([1]; rat): 53.3 ×10⁻⁶ cm/s
- PSblank [2]: 1.71 ± 0.15 µL/min
- PSall ([2]; rat): 1.07 ± 0.06 µL/min
- PScell ([2]; rat): 2.86 ± 0.39 µL/min
- PSblank [3]: 6.72 ± 0.12 µL/min
- PScell ([3]; PBMEC/C1-2, Ibuprofen study, cell layer only): 7.10 ± 0.65 µL/min
- PSall ([3]; PBMEC/C1-2, Ibuprofen study, insert and cell layer): 3.45 ± 0.15 µL/min
- PEall ([4]; human, 100 µM): 4.82±0.05 µm/min

Molecule: CN1C(C(=O)Nc2ccccn2)=C(O)c2sccc2S1(=O)=O [Tenoxicam, tenoxicam]
- Papp at 100 µM ([1]; human): 12.3 ×10⁻⁶ cm/s
- Papp at 100 µM ([1]; pig): 36.7 ×10⁻⁶ cm/s
- Papp at 100 µM ([1]; pig, PEcell): 38.5 ×10⁻⁶ cm/s
- Papp at 100 µM ([1]; rat): 21.9 ×10⁻⁶ cm/s
- PSblank ([2]; 100 µM): 1.74 ± 0.10 µL/min
- PEall ([2]; rat, 100 µM): 7.82±0.21 µm/min
- PSall ([2]; rat, 100 µM): 0.70 ± 0.02 µL/min
- PScell ([2]; rat, 100 µM): 1.18 ± 0.05 µL/min
- PSblank ([3]; 100 µM): 7.47 ± 0.31 µL/min
- PEall ([3]; pig, 100 µM): 9.84±0.16 µm/min
- PSall ([3]; pig, 100 µM): 4.13 ± 0.07 µL/min
- PScell ([3]; pig, 100 µM): 9.25 ± 0.33 µL/min
- PSblank ([4]; 100 µM): 7.12 ± 0.50 µL/min
- PEall ([4]; human, 100 µM): 5.15±0.05 µm/min
- PSall ([4]; human, 100 µM): 2.16 ± 0.02 µL/min
- PScell ([4]; human, 100 µM): 3.11 ± 0.04 µL/min

Molecule: CN1C(C(=O)Nc2ccccn2)=C(O)c2ccccc2S1(=O)=O [Piroxicam, piroxicam]
- Papp at 100 µM [5, 7]: 21.4 ×10⁻⁶ cm/s
- Papp at 100 µM ([5]; ECV304 group study, glioma conditioned medium, without celecoxib): 30.8 ×10⁻⁶ cm/s
- Papp at 100 µM ([5]; ECV304 group study, serum-free medium, without celecoxib): 37.8 ×10⁻⁶ cm/s
- Papp at 100 µM ([5]; ECV304 group study, without CF (and without celecoxib)): 30.3 ×10⁻⁶ cm/s
- Papp at 100 µM ([5]; ECV304 group study, without Celecoxib): 28.6 ×10⁻⁶ cm/s
- Papp at 100 µM [5, 8]: 45.9 ×10⁻⁶ cm/s
- Papp at 100 µM [5, 9]: 29.5 ×10⁻⁶ cm/s
- Papp at 100 µM [5, 10]: 26.6 ×10⁻⁶ cm/s
- Papp at 100 µM ([1]; human): 20.4 ×10⁻⁶ cm/s
- Papp at 100 µM ([1]; pig): 39.7 ×10⁻⁶ cm/s
- Papp at 100 µM [1, 11]: 70 ×10⁻⁶ cm/s
- Papp at 100 µM ([1]; pig, PEcell, PBMEC/C1-2 group study, glioma conditioned medium, without celecoxib): 49.8 ×10⁻⁶ cm/s
- Papp at 100 µM ([1]; pig, PEcell, PBMEC/C1-2 group study, without Celecoxib): 42.1 ×10⁻⁶ cm/s
- Papp at 100 µM [1, 12]: 64.2 ×10⁻⁶ cm/s
- Papp at 100 µM [1, 13]: 66.8 ×10⁻⁶ cm/s
- Papp at 100 µM ([1]; rat): 52.3 ×10⁻⁶ cm/s
- PSblank ([2]; 100 µM): 1.94 ± 0.12 µL/min
- PEall ([2]; RBMEC group study, insert and cell layer): 12.76±0.33 µm/min
- PSall ([2]; rat, 100 µM): 1.15 ± 0.03 µL/min
- PScell ([2]; rat, 100 µM): 2.82 ± 0.17 µL/min
- PSblank ([3]; 100 µM): 8.69 ± 0.72 µL/min
- PEall ([3]; PBMEC/C1-2, Piroxicam study, insert and cell layer): 11.02±0.87 µm/min
- PEcell ([3]; serum-free medium, without celecoxib): 24.96±2.08 µm/min
- PEcell ([3]; with Probenecid, without Meloxicam): 30.26±5.85 µm/min
- PEcell ([3]; without CF (and without celecoxib)): 30.27±2.61 µm/min
- PSall ([3]; pig, 240 min, 100 µM): 4.63 ± 0.36 µL/min
- PScell ([3]; pig, 240 min, 100 µM): 9.91 ± 1.60 µL/min
- PSblank ([4]; 100 µM): 8.53 ± 0.36 µL/min
- PEall ([4]; ECV304, Piroxicam study, insert and cell layer): 7.65±0.18 µm/min
- PSall ([4]; human, 100 µM): 3.21 ± 0.07 µL/min
- PScell ([4]; human, 240 min, 100 µM): 5.15 ± 0.19 µL/min

Molecule: carboxyfluorescein [CF]
- Permeability coefficients (PEcell), range of averages over the single studies [3]: 16.67-19.66 µm/min
